How the values were obtained:
5-HT2 receptors = target: T1, 5-HT2 receptors (Rattus norvegicus, UniProt P14842); assay: Inhibition of 3H-ketanserin binding to 5-HT2 receptors in rat cortex in vitro; details: 3H-Ketanserin 0.5 nM, rat cortex, 37° C., 30 min; read-out: Receptor Binding; IC50 5-HT2 3H-Ket
T1 construct: cortical tissue is dissected and weighed; from tissue; host or cells: cortex of male Wistar rats, crude membranes
Protocol: Method in Hyttel, Pharmacology & Toxicology, 61, 126-129, 1987.
Male Wistar (Mol:Wist) rats (125-250 g) are sacrificed and cortical tissue is dissected and weighed. The tissue is homogenized (Ultra Turrax, 10 sec.) in 10 ml of ice-cold 50 mM tris buffer pH 7.7 (at 25° C.). The centrifuge glassware used in this step has been rinsed by sonication for 10 min. in ethanol. The homogenate is centrifuged twice at 20,000 g for 10 min. at 4° C. with rehomogenization of the pellet in 10 ml ice-cold buffer. The final pellet is homogenized in 500 vol (w/v) ice-cold buffer.
Incubation tubes kept on ice in triplicate receive 100 μl of drug solution in water (or water for total binding) and 2000 μl of tissue suspension (final tissue content corresponds to 4 mg original tissue). […] After incubation for 30 min. the samples are filtered under vacuum (0-50 mBar) through Whatman GF/F filters (25 mm). The tubes are rinsed with 5 ml ice-cold buffer which are then poured on the filters. Thereafter, the filters are washed with 2×5 ml of buffer. The filters are placed in counting vials and 4 ml of appropriate scintillation fluid (e.g. Picofluor™15) are added. After shaking for 1 h and storage 2 hrs in the dark the content of radioactivity is determined by liquid scintillation counting. Specific binding is obtained by subtracting the nonspecific binding in the presence of 1 μM mianserin.
(§1) For determination of the inhibition of binding five concentrations of drugs covering 3 decades are used.
The IC50 value is determined as the concentration at which the binding is 50% of the total binding in control samples minus the nonspecific binding in the presence of 1 μM mianserin.

α1 adrenoceptors = assay: Inhibition of 3H-prazosin binding to α1 adrenoceptors in rat brain in vitro; details: 3H-Prazosin 0.25 nM, rat brain, 25° C., 20 min; read-out: Receptor Binding; IC50 α1 3H-Praz
Protocol: INHIBITION OF ^3 H-PRAZOSIN BINDING TO α1 ADRENOCEPTORS IN RAT BRAIN IN VITRO
Method and results in Hyttel & Larsen, J. Neurochem, 44, 1615-1622, 1985; Skarsfeldt & Hyttel, Eur. J. Pharmacol. 125, 323-340, 1986.
Male Wistar (Mol:Wist) rats (125-200 g) are sacrificed and brain tissue is dissected and weighed. The tissue is homogenized (Ultra Turrax, 10 sec.) in 10 ml of ice-cold […] Tris buffer pH 7,7 (at 25° C.). The homogenate is centrifuged twice at 20,000 g for 10 min. at 4° C. with rehomogenization of the pellet in 10 ml ice-cold buffer. The final pellet is homogenized in 400 vol (w/v) ice-cold buffer.
Incubation tubes kept on ice in triplicate receive 100 μl of drug solution in water (or water for total binding) and 4000μl of tissue suspension (final tissue content corresponds to 10 mg original tissue). The binding experiment is initiated by addition of 100 μl of ^3 H-Prazosin (final concentration 0.25 nM) and by placing the tubes in a 25° C. water bath. After incubation for 20 min. the samples are filtered under vacuum (0-50 mBar) through Whatman GF/F filters (25 mm). The tubes are rinsed with 5 ml ice-cold buffer which then are poured on the filters. Thereafter, the filters are washed with 5 ml of buffer. The filters are placed in counting vials and 4 ml of appropriate scintillation fluid (e.g. Picofluor™15) are added. After shaking for 1 h and storage 2 hrs in the dark the content of radioactivity is determined by liquid scintillation counting. Specific binding is obtained by subtracting the nonspecific binding in the presence of 1 μM of Prazosin.
as §1
The measured cpm are plotted against drug concentration on semilogarithmic paper and the best fitting S-shaped curve is drawn. The IC50 value is determined as the concentration at which the binding is 50% of the total binding in control samples minus the nonspecific binding in the presence of 1 μM of Prazosin.
^3 H-Prazosin=[furoyl-5-^3 H]-Prazosin from New England Nuclear, specific activity approximately 20 Ci/mmol.

T1 sequence (P14842 whole entry): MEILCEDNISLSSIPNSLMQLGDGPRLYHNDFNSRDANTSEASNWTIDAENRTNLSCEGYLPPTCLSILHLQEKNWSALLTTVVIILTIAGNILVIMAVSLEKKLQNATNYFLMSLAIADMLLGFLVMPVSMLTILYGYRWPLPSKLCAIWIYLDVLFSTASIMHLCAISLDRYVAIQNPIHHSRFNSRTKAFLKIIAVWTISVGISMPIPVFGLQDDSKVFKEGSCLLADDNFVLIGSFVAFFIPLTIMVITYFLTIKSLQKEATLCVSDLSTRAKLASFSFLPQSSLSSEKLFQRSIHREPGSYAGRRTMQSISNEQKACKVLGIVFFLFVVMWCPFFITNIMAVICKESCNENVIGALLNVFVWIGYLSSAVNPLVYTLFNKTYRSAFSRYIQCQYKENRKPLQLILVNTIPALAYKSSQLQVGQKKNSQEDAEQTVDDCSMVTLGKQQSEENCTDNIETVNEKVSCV

| Structure (SMILES) | IC50 (5-HT2 receptors) | IC50 (α1 adrenoceptors) |
| --- | --- | --- |
| OCCN1CCN([C@H]2C[C@H](c3ccc(F)cc3)c3cc(F)ccc32)CC1 (relative stereo) [Compound 2, Trans-4-[5-fluoro-3-(4-fluorophenyl)-2,3-dihydro-1H-inden-1-yl]-1-piperazine ethanol] | 21 nM | 150 nM |
| O=C1NCCN1CCN1CCN([C@@H]2C[C@@H](c3ccc(F)cc3)c3cc(Cl)ccc32)CC1 (relative stereo) [Compound 4, Trans-1-[2-[4-[5-chloro-3-(4-fluorophenyl)-2,3-dihydro-1H-inden-1-yl]piperazine-1-yl]ethyl]-2-imidazolidinone] | 2.9 nM | 200 nM |
| Cc1ccc2c(c1)[C@@H](c1ccc(F)cc1)C[C@@H]2N1CCN(CCN2CCN(C(C)C)C2=O)CC1 (relative stereo) [Compound 12, Trans-1-[2-[4-[3-(4-fluorophenyl)-5-methyl-2,3-dihydro-1-H-inden-1-yl]piperazin-1-yl]ethyl]-3-isopropyl-2-imidazolidinone] | 3 nM | 120 nM |
| O=C1OCCN1CCN1CCN([C@H]2C[C@H](c3ccc(F)cc3)c3cc(Cl)ccc32)CC1 (relative stereo) [Compound 14, Trans-3-[2-[4-[5-chloro-3-(4-fluorophenyl)-2,3-dihydro-1-H-inden-1-yl]piperazin-1-yl]ethyl]-2-oxazolidinone] | 23 nM | 140 nM |
| O=C1CCCN1CCN1CCN([C@H]2C[C@H](c3ccc(F)cc3)c3cc(Cl)ccc32)CC1 (relative stereo) [Compound 15, Trans-1-[2-[4-[5-chloro-3-(4-fluorophenyl)-2-3-dihydro-1-H-inden-1-yl]piperazin-1-yl]ethyl]-2-pyrrolidinone] | 10 nM | 370 nM |
| O=C1NCCN1CCCN1CCN([C@H]2C[C@H](c3ccc(F)cc3)c3cc(Cl)ccc32)CC1 (relative stereo) [Compound 16, Trans-1-[3-[4-[5-chloro-3-(4-fluorophenyl)-2,3-dihydro-1-H-inden-1-yl]piperazin-1-yl]propan-1-yl]-2-imidazolidinone] | 10 nM | 73 nM |
| O=c1[nH]c2ccccc2n1CCN1CCN([C@@H]2C[C@@H](c3ccc(F)cc3)c3cc(Cl)ccc32)CC1 (relative stereo) [Compound 25, Trans-1-[2-[4-[5-chloro-3-(4-fluorophenyl)-2,3-dihydro-1H-inden-1-yl]piperazin-1-yl]ethyl]-benzimidazolin-2-one] | 5.6 nM |  |
| Fc1ccc([C@@H]2C[C@@H](N3CCN(CCN4CCNC4=S)CC3)c3ccc(F)cc32)cc1 (relative stereo) [Compound 29, Trans-1-[2-[4-[5-fluoro-3-(4-fluorophenyl)-2,3-dihydro-1H-inden-1-yl]piperazin-1-yl]-ethyl]-2-imidazolidinthione] | 1.5 nM | 110 nM |
| Fc1ccc([C@@H]2C[C@@H](N3CCN(CCN4CCCNC4=S)CC3)c3ccc(F)cc32)cc1 (relative stereo) [Compound 30, Trans-1-[2-[4-[5-fluoro-3-(4-fluorophenyl)-2,3-dihydro-1H-inden-1-yl]piperazin-1-yl]ethyl]-tetrahydro-2(1H)-pyrimidinethione] | 1.7 nM | 110 nM |
| O=C1NCCCN1CCN1CCN([C@@H]2C[C@@H](c3ccc(F)cc3)c3cc(Cl)ccc32)CC1 (single isomer, unassigned) [(+)-34, (+)-Trans-1-[2-[4-[5-chloro-3-(4-fluorophenyl)-2,3-dihydro-1H-inden-1-yl]piperazin-1-yl]ethyl]-tetrahydro-2(1H)-pyrimidinone] | 120 nM |  |
| Fc1ccc([C@@H]2C[C@@H](N3CCN(CCN4CCCNC4=S)CC3)c3ccc(F)cc32)cc1 (single isomer, unassigned) [(-)-30, (-)-Trans-1-[2-[4-[5-fluoro-3-(4-fluorophenyl)-2,3-dihydro-1H-inden-1-yl]piperazin-1-yl]ethyl]-tetrahydro-2(1H)-pyrimidinethione] | 42 nM |  |
